{
  "source": "PubChem BioAssay AID651781",
  "about": "(The Scripps Research Institute Molecular Screening Center, 2012)",
  "note": "Calls of active or inactive are those of the source.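 Rule for the calls: active = IC50 at or below 10 µM; inactive = IC50 above 10 µM.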",
  "data": [
    {"target": "GAL4 DBD-VP16 fusion transactivation (Human herpesvirus 1 VP16)", "test": "nonselective repression of VP16-driven luciferase – cell-based, luminescence, dose response, powder samples, counter-screen for SRC3 inhibitor project, late-stage follow-up (AID 651781)", "conditions": "HEK293 GAL4-VP16 UAS luciferase reporter", "values": [
      {"smiles": "Cc1ccc(OCC(=O)c2cc(C)n(-c3ccccc3)c2C)c([N+](=O)[O-])n1", "IC50": "inactive"},
      {"smiles": "CC(C)(C)c1ccc(-c2noc(CCC(=O)Nc3cccnc3)n2)cc1", "IC50": "9.65 µM"},
      {"smiles": "CCCNC(=O)c1nnsc1S(=O)(=O)c1ccc(Cl)cc1", "IC50": "6.04 µM"},
      {"smiles": "CN1C(=O)C2(C(C#N)=C(N)N(c3cc(Cl)cc(Cl)c3)C3=C2C(=O)CC(C)(C)C3)c2ccccc21", "note": "(stereo not drawn)", "IC50": "inactive"},
      {"smiles": "O=C(COC(=O)c1ccc[nH]c1=O)Nc1ccc(N2CCCCC2)cc1", "IC50": "> 35.9 µM (inactive)"},
      {"smiles": "CN1C(=O)C2(C(C#N)=C(N)N(c3cc(Cl)cc(Cl)c3)C3=C2C(=O)CCC3)c2ccccc21", "note": "(stereo not drawn)", "IC50": "inactive"},
      {"smiles": "OCCN1CCN(C(=S)c2ccc(-c3ccccc3)cc2)CC1", "IC50": "inactive"},
      {"smiles": "O=C(Nc1ccccc1Oc1ccccc1)c1cc([N+](=O)[O-])ccc1Cl", "IC50": "inactive"}
    ]}
  ]
}
